Measurements: article PMC9482650, “Quantitative fragmentomics allow affinity mapping of interactomes” (Nature Communications, 2022)
Where two headings read alike, the source gives them in different places. Ends that are not written are not given here.

Columns and labels:
Format in all cases: binding
DLG4_1 PDZ = DLG4_1 PDZ (Homo sapiens, UniProt P78352); test: Holdup assay
LAP2 PDZ = LAP2 PDZ (Homo sapiens, UniProt Q96RT1); test: Holdup assay
DLG1_1 PDZ = DLG1_1 PDZ (Homo sapiens, UniProt Q12959); test: Holdup assay
SNX27 PDZ = SNX27 PDZ (Homo sapiens, UniProt Q96L92); test: Holdup assay; details: composite holdup affinity; 0.00=below quantification threshold; read-out: COMP pKd (converted)
SYNJ2BP PDZ = target: T1, SYNJ2BP PDZ (Homo sapiens, UniProt P57105); test: Holdup assay
T1 sequence (P57105 13-100 limits assumed): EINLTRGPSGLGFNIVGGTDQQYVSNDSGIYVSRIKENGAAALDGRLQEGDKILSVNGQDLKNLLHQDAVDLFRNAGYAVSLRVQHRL

PDZD7_3 PDZ = target: T2, PDZD7_3 PDZ (Homo sapiens, UniProt Q9H5P4); test: Holdup assay
T2 sequence (Q9H5P4 862-934 limits assumed): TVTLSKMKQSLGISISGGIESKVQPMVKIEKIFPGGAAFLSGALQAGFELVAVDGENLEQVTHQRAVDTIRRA

SCRIB2 PDZ = target: T3, SCRIB2 PDZ (Homo sapiens, UniProt Q14160); test: Holdup assay
T3 sequence (Q14160 862-950 limits assumed): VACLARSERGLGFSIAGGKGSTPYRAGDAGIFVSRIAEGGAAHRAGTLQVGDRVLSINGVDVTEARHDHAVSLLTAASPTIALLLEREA

NHERF3_1 PDZ = target: T4, NHERF3_1 PDZ (Homo sapiens, UniProt Q5T2W1); test: Holdup assay
T4 sequence (Q5T2W1 9-90 limits assumed): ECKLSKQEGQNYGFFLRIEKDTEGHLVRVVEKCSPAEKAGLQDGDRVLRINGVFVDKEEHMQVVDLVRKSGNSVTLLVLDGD

PDZRN4_1 PDZ = target: T5, PDZRN4_1 PDZ (Homo sapiens, UniProt Q6ZMN7); test: Holdup assay
T5 sequence (Q6ZMN7 224-314 limits assumed): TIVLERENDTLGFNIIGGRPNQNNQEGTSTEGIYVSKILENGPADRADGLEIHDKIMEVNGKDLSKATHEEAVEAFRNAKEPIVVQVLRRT

DLG3_2 PDZ = target: T6, DLG3_2 PDZ (Homo sapiens, UniProt Q92796); test: Holdup assay
T6 sequence (Q92796 226-311 limits assumed): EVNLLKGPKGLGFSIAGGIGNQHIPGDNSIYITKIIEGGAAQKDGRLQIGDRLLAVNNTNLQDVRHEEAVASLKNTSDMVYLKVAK

ARHGEF11 PDZ = target: T7, ARHGEF11 PDZ (Homo sapiens, UniProt O15085); test: Holdup assay
T7 sequence (O15085 47-126 limits assumed): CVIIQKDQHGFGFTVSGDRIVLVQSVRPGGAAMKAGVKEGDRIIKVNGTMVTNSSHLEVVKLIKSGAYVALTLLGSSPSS

DLG4_3 PDZ = DLG4_3 PDZ (Homo sapiens, UniProt P78352); test: Holdup assay
DLG4_3 PDZ, sequence (P78352 313-393 limits assumed): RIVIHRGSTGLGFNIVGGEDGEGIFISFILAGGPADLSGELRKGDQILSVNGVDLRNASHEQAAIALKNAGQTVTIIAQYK

MAST2 PDZ = target: T8, MAST2 PDZ (Homo sapiens, UniProt Q6P0Q8); test: biochemical; details: composite holdup affinity; 0.00=below quantification threshold; read-out: COMP pKd (converted)
T8 sequence (Q6P0Q8 1104-1192 limits assumed): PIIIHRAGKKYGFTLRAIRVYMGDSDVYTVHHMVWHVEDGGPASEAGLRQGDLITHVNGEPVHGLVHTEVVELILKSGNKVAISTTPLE

NOS1 PDZ = NOS1 PDZ (Homo sapiens, UniProt P29475); test: Holdup assay
NOS1 PDZ, sequence (P29475 17-99 limits assumed): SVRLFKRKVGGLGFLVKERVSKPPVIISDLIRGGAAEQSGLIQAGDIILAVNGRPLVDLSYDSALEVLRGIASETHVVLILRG

TX1BP3 PDZ = target: T9, TX1BP3 PDZ (Homo sapiens, UniProt O14907); test: Holdup assay
T9 sequence (O14907 15-112 limits assumed): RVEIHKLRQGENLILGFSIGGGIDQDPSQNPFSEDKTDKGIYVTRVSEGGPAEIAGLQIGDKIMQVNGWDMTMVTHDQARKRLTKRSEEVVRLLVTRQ

SNTB1 PDZ = target: T10, SNTB1 PDZ (Homo sapiens, UniProt Q13884); test: Holdup assay
T10 sequence (Q13884 112-195 limits assumed): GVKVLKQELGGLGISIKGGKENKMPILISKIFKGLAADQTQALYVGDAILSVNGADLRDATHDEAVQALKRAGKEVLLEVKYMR

DLG2_2 PDZ = DLG2_2 PDZ (Homo sapiens, UniProt Q15700); test: Holdup assay
DLG2_2 PDZ, sequence (Q15700 193-279 limits assumed): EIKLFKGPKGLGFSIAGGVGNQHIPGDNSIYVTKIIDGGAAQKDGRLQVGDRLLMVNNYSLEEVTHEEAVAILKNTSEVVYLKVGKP

SNTG2 PDZ = target: T11, SNTG2 PDZ (Homo sapiens, UniProt Q9NY99); test: Holdup assay
T11 sequence (Q9NY99 73-156 limits assumed): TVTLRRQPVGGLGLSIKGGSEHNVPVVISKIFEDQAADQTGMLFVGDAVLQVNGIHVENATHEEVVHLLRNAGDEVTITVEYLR

SNTA1 PDZ = target: T12, SNTA1 PDZ (Homo sapiens, UniProt Q13424); test: Holdup assay
T12 sequence (Q13424 87-170 limits assumed): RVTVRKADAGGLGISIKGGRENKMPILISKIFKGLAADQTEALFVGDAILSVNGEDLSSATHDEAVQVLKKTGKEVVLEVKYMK

MAGI2_5 PDZ = MAGI2_5 PDZ (Homo sapiens, UniProt Q86UL8); test: Holdup assay
MAGI2_5 PDZ, sequence (Q86UL8 920-1010 limits assumed): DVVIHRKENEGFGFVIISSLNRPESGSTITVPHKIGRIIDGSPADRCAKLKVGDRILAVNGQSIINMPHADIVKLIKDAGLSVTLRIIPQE

PDZD2_2 PDZ = target: T13, PDZD2_2 PDZ (Homo sapiens, UniProt O15018); test: Holdup assay
T13 sequence (O15018 334-419 limits assumed): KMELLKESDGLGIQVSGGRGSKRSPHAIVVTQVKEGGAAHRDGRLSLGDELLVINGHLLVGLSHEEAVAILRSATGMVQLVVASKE

DLG4_2 PDZ = DLG4_2 PDZ (Homo sapiens, UniProt P78352); test: Holdup assay
DLG4_2 PDZ, sequence (P78352 160-246 limits assumed): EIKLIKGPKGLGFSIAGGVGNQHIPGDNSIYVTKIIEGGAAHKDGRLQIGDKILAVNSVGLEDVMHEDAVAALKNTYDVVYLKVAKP

DLG1_3 PDZ = DLG1_3 PDZ (Homo sapiens, UniProt Q12959); test: Holdup assay
PTPN3 PDZ = target: T14, PTPN3 PDZ (Homo sapiens, UniProt P26045); test: Holdup assay
T14 sequence (P26045 510-582 limits assumed): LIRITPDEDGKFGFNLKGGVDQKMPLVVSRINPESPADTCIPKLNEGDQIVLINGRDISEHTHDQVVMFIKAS

LIN7B PDZ = target: T15, LIN7B PDZ (Homo sapiens, UniProt Q9HAP6); test: Holdup assay
T15 sequence (Q9HAP6 93-175 limits assumed): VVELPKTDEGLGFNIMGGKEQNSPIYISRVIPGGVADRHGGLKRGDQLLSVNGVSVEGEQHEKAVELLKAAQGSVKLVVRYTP

[1] = composite holdup affinity, 0.00=below quantification threshold, read-out: COMP pKd (converted)

LAP2 PDZ, sequence (Q96RT1 1321-1410 limits assumed): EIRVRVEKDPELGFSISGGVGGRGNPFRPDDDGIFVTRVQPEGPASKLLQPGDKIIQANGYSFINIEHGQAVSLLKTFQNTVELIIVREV
DLG4_1 PDZ, sequence (P78352 65-151): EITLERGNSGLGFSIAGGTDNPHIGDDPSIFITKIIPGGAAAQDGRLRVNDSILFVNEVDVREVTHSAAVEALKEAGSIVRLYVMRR

Compound: CC(C)C[C@H](NC(=O)[C@@H](N)CCCNC(=N)N)C(=O)N[C@@H](CCC(N)=O)C(=O)N[C@@H](CCCNC(=N)N)C(=O)N[C@@H](CCCNC(=N)N)C(=O)N[C@@H](CCCNC(=N)N)C(=O)N[C@@H](CCC(=O)O)C(=O)N[C@H](C(=O)N[C@@H](CCC(N)=O)C(=O)N[C@H](C(=O)O)C(C)C)[C@@H](C)O [HPV18-E6]
- Kd (DLG4_1 PDZ): 7.76 µM
- Kd (LAP2 PDZ): 245 µM
- Kd (DLG1_1 PDZ): 5.5 µM
- Kd (SNX27 PDZ): 28.2 µM
- Kd (SYNJ2BP PDZ): 4.47 µM
- Kd (PDZD7_3 PDZ): 105 µM
- Kd (SCRIB2 PDZ): 36.3 µM
- Kd (NHERF3_1 PDZ): 89.1 µM
- Kd (PDZRN4_1 PDZ): 33.1 µM
- Kd (DLG3_2 PDZ): 3.47 µM
- Kd (ARHGEF11 PDZ): 219 µM
- Kd (DLG4_3 PDZ): 1.82 µM
- Kd (MAST2 PDZ): 16.6 µM
- Kd (NOS1 PDZ): 195 µM
- Kd (TX1BP3 PDZ): 21.9 µM
- Kd (SNTB1 PDZ): 5.89 µM
- Kd (DLG2_2 PDZ): 6.46 µM
- Kd (SNTG2 PDZ): 93.3 µM
- Kd (SNTA1 PDZ): 20 µM
- Kd (MAGI2_5 PDZ): 166 µM
- Kd (PDZD2_2 PDZ): 437 µM
- Kd (DLG4_2 PDZ): 3.47 µM
- Kd (DLG1_3 PDZ): 9.55 µM
- Kd (PTPN3 PDZ): 32.4 µM
- Kd (LIN7B PDZ): 263 µM

Compound: SRRPRTETQV [HPV31-E6]
- Kd (DLG4_1 PDZ; [1]): 9.55 µM
- Kd (LAP2 PDZ; [1]): 126 µM
- Kd (DLG1_1 PDZ; [1]): 6.92 µM
- Kd (SNX27 PDZ): 22.9 µM
- Kd (SYNJ2BP PDZ; [1]): 3.89 µM
- Kd (PDZD7_3 PDZ; [1]): 195 µM
- Kd (SCRIB2 PDZ; [1]): 41.7 µM
- Kd (NHERF3_1 PDZ; [1]): 47.9 µM
- Kd (PDZRN4_1 PDZ; [1]): 64.6 µM
- Kd (DLG3_2 PDZ; [1]): 3.89 µM
- Kd (ARHGEF11 PDZ; [1]): 263 µM
- Kd (DLG4_3 PDZ; [1]): 7.94 µM
- Kd (MAST2 PDZ): 5.89 µM
- Kd (NOS1 PDZ; [1]): 123 µM
- Kd (TX1BP3 PDZ; [1]): 24.5 µM
- Kd (SNTB1 PDZ; [1]): 70.8 µM
- Kd (DLG2_2 PDZ; [1]): 4.27 µM
- Kd (SNTG2 PDZ; [1]): 83.2 µM
- Kd (SNTA1 PDZ; [1]): 51.3 µM
- Kd (MAGI2_5 PDZ; [1]): 129 µM
- Kd (PDZD2_2 PDZ; [1]): 200 µM
- Kd (DLG4_2 PDZ; [1]): 4.37 µM
- Kd (DLG1_3 PDZ; [1]): 25.1 µM
- Kd (PTPN3 PDZ; [1]): 21.9 µM
- Kd (LIN7B PDZ; [1]): 209 µM

Compound: SKPTRRETEV [HPV35-E6]
- Kd (DLG4_1 PDZ; [1]): 8.13 µM
- Kd (LAP2 PDZ; [1]): 204 µM
- Kd (DLG1_1 PDZ; [1]): 9.55 µM
- Kd (SNX27 PDZ): 21.9 µM
- Kd (SYNJ2BP PDZ; [1]): 2.04 µM
- Kd (PDZD7_3 PDZ; [1]): 50.1 µM
- Kd (SCRIB2 PDZ; [1]): 20 µM
- Kd (NHERF3_1 PDZ; [1]): 91.2 µM
- Kd (PDZRN4_1 PDZ; [1]): 41.7 µM
- Kd (DLG3_2 PDZ; [1]): 3.24 µM
- Kd (ARHGEF11 PDZ; [1]): 77.6 µM
- Kd (DLG4_3 PDZ; [1]): 6.31 µM
- Kd (MAST2 PDZ): 8.13 µM
- Kd (NOS1 PDZ; [1]): 182 µM
- Kd (TX1BP3 PDZ; [1]): 11.7 µM
- Kd (SNTB1 PDZ; [1]): 20.9 µM
- Kd (DLG2_2 PDZ; [1]): 5.37 µM
- Kd (SNTG2 PDZ; [1]): 112 µM
- Kd (SNTA1 PDZ; [1]): 14.1 µM
- Kd (MAGI2_5 PDZ; [1]): 66.1 µM
- Kd (PDZD2_2 PDZ; [1]): 166 µM
- Kd (DLG4_2 PDZ; [1]): 3.09 µM
- Kd (DLG1_3 PDZ; [1]): 17 µM
- Kd (PTPN3 PDZ; [1]): 11.7 µM
- Kd (LIN7B PDZ; [1]): 324 µM
